The record followed here is US11179383B2 (Gilead Sciences, Inc., priority 2018, dated 2021).

Molecules are shown by their SMILES.

The target of the assay is T1, α4β7 integrin (Homo sapiens, UniProt P13612+P26010).
T1 construct: monitoring the capture of α4β7 integrin expressing cells on a recombinant MadCAM-1 extracellular domain-coated plate; endogenous in cells; host or cells: RPMI8866 cells
T1 sequence (P13612 34-1032): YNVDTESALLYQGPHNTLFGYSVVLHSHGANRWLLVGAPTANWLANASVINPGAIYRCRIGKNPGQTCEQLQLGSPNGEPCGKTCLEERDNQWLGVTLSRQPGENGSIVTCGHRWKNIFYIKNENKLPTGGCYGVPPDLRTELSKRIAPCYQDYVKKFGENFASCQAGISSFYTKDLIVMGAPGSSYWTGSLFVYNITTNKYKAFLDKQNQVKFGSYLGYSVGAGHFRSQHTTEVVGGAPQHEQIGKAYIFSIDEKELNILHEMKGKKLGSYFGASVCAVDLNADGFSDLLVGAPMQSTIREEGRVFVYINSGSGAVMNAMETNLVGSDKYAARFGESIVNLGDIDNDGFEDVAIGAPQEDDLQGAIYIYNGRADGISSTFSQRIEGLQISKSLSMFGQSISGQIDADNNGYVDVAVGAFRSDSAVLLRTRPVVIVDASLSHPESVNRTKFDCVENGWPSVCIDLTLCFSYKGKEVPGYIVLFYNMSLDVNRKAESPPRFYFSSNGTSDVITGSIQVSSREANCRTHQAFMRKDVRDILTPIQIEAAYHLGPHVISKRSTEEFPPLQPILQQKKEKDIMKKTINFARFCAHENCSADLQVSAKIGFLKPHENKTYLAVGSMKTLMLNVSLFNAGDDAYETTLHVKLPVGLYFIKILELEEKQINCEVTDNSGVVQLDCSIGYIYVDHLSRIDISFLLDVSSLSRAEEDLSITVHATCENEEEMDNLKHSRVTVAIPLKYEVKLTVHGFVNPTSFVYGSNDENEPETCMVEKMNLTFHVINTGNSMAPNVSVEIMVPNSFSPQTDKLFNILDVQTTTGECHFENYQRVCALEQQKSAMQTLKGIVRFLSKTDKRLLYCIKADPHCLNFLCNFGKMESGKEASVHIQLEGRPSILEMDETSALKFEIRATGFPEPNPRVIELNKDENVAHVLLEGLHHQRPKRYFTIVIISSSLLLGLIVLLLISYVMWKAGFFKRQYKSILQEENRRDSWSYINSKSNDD
T1 sequence (P26010 20-798): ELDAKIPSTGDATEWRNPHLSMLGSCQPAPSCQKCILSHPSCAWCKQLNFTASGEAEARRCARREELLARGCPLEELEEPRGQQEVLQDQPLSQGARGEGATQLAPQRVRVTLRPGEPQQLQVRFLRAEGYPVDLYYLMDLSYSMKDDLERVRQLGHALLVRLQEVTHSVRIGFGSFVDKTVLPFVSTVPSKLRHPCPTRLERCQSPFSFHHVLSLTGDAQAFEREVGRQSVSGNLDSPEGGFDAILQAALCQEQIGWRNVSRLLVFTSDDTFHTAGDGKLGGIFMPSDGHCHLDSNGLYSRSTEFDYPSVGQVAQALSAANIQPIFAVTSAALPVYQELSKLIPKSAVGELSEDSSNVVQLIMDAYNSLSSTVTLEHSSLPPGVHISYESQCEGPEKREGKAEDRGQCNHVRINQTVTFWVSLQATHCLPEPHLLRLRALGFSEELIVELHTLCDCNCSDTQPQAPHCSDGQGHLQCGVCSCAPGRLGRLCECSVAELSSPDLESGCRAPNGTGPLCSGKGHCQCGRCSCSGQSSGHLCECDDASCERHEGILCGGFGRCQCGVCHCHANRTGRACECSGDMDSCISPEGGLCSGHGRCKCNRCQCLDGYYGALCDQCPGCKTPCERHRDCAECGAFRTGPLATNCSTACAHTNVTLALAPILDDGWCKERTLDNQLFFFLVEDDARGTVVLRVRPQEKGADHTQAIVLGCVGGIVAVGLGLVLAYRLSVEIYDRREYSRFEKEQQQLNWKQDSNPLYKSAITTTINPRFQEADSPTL
Briefly: α4β7 Integrin Cell Capture Assay. Particulars: capture of α4β7 integrin expressing RPMI8866 cells on recombinant MadCAM-1 extracellular domain-coated plate; DMEM+0.5% FBS+0.5 mM MnCl2; read-out: EC50 α4β7. The class given is cell-based. A digest of the protocol: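 RPMI8866 cells in DMEM + 0.5% FBS + 0.5 mM MnCl2 preincubated with compound 1 h at 37 °C, then allowed to bind 30 min at 37 °C to plates coated with MAdCAM-1 extracellular domain (1.0 μg/mL). Cells fixed with glutaraldehyde, Hoechst-stained, imaged and bound cells counted; EC50 from cell count versus concentration.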
As a reminder, the EC50 is the concentration giving half of the maximal effect. Take `COc1c(F)cccc1-c1ccc(C[C@H](NC(=O)c2c(Cl)cccc2Cl)C(=O)O)c2ncccc12` [Example 45, (S)-2-(2,6-dichlorobenzamido)-3-(5-(3-fluoro-2-methoxyphenyl)quinolin-8-yl)propanoic acid]: the EC50 worked out at 0.243 µM. Turning to `COc1cc(F)c(F)cc1-c1ccc(C[C@H](NC(=O)c2c(Cl)cccc2Cl)C(=O)O)c2ncccc12` [Example 46, (S)-2-(2,6-dichlorobenzamido)-3-(5-(4,5-difluoro-2-methoxyphenyl)quinolin-8-yl)propanoic acid], the EC50 turned out to be 0.0322 µM. As for `O=C(N[C@@H](Cc1ccc(-c2nccc(C(F)(F)F)c2Cl)c2cccnc12)C(=O)O)c1c(Cl)cccc1Cl` [Example 51, (S)-3-(5-(3-chloro-4-(trifluoromethyl)pyridin-2-yl)quinolin-8-yl)-2-(2,6-dichlorobenzamido)propanoic acid], the figure is 0.0451 µM. Regarding `COc1cc(F)c(Cl)cc1-c1ccc(C[C@H](NC(=O)c2c(Cl)cccc2Cl)C(=O)O)c2ncccc12` [Example 52, (S)-3-(5-(5-chloro-4-fluoro-2-methoxyphenyl)quinolin-8-yl)-2-(2,6-dichlorobenzamido)propanoic acid], the concentration giving a half-maximal response (EC50) came out at 0.0438 µM. Under `[2H]C([2H])([2H])Oc1cc(F)c(F)cc1-c1ccc(C[C@H](NC(=O)c2c(Cl)cccc2Cl)C(=O)O)c2ncccc12` [Example 55, (S)-2-(2,6-dichlorobenzamido)-3-(5-(4,5-difluoro-2-(methoxy-d3)phenyl)quinolin-8-yl)propanoic acid] stands 0.0631 µM; under `COc1cc(F)c(C)cc1-c1ccc(C[C@H](NC(=O)c2c(Cl)cccc2Cl)C(=O)O)c2ncccc12` [Example 56, (S)-2-(2,6-dichlorobenzamido)-3-(5-(4-fluoro-2-methoxy-5-methylphenyl)quinolin-8-yl)propanoic acid], 0.0685 µM. As for `O=C(N[C@@H](Cc1ccc(-c2nccc(Cl)c2C(F)(F)F)c2cccnc12)C(=O)O)c1c(Cl)cccc1Cl` [Example 57, (S)-3-(5-(4-chloro-3-(trifluoromethyl)pyridin-2-yl)quinolin-8-yl)-2-(2,6-dichlorobenzamido)propanoic acid], the figure is 0.0236 µM; as for `Cn1c(=O)c(-c2ccc(C[C@H](NC(=O)c3c(Cl)cccc3Cl)C(=O)O)c3ncccc23)c(C(F)(F)F)c2cc(Br)ccc21` [Example 58, (S)-3-(6-bromo-1-methyl-2-oxo-4-(trifluoromethyl)-1,2-dihydro-[3,5′-biquinolin]-8′-yl)-2-(2,6-dichlorobenzamido)propanoic acid], 0.0192 µM. For `Cn1c(=O)c(-c2ccc(C[C@H](NC(=O)c3c(Cl)cccc3Cl)C(=O)O)c3ncccc23)c(C(F)(F)F)c2ccccc21` [Example 59, (S)-2-(2,6-dichlorobenzamido)-3-(1-methyl-2-oxo-4-(trifluoromethyl)-1,2-dihydro-[3,5′-biquinolin]-8′-yl)propanoic acid], the EC50 was found to be 0.0107 µM. Under `Cc1c(-c2ccc(C[C@H](NC(=O)c3c(Cl)cccc3Cl)C(=O)O)c3ncccc23)c(=O)n(C)c2ccc(C(F)(F)F)cc12` [Example 66, (S)-2-(2,6-dichlorobenzamido)-3-(1,4-dimethyl-2-oxo-6-(trifluoromethyl)-1,2-dihydro-[3,5′-biquinolin]-8′-yl)propanoic acid] stands 0.0062 µM. Consider `Cc1c(-c2ccc(C[C@H](NC(=O)c3c(Cl)cccc3Cl)C(=O)O)c3ncccc23)c(=O)n(C)c2ccc(Cl)cc12` [Example 67, (S)-3-(6-chloro-1,4-dimethyl-2-oxo-1,2-dihydro-[3,5′-biquinolin]-8′-yl)-2-(2,6-dichlorobenzamido)propanoic acid], for which the EC50 worked out at 0.0025 µM. On to `Cn1c2c(c(C(F)(F)F)c(-c3ccc(C[C@H](NC(=O)c4c(Cl)cccc4Cl)C(=O)O)c4ncccc34)c1=O)CCC2` [Example 68, (S)-2-(2,6-dichlorobenzamido)-3-(5-(1-methyl-2-oxo-4-(trifluoromethyl)-2,5,6,7-tetrahydro-1H-cyclopenta[b]pyridin-3-yl)quinolin-8-yl)propanoic acid], for which the EC50 was determined as 0.0027 µM. Under `COc1cnn(C)c(=O)c1-c1ccc(C[C@H](NC(=O)c2c(Cl)cccc2Cl)C(=O)O)c2ncccc12` [Example 69, (S)-2-(2,6-dichlorobenzamido)-3-(5-(5-methoxy-2-methyl-3-oxo-2,3-dihydropyridazin-4-yl)quinolin-8-yl)propanoic acid] stands 0.0092 µM; under `Cc1c(-c2ccc(C[C@H](NC(=O)c3c(Cl)cccc3Cl)C(=O)O)c3ncccc23)c(=O)n(C)c2ccc(Br)cc12` [Example 70, (S)-3-(6-bromo-1,4-dimethyl-2-oxo-1,2-dihydro-[3,5′-biquinolin]-8′-yl)-2-(2,6-dichlorobenzamido)propanoic acid], 0.0551 µM; under `Cc1c(-c2ccc(C[C@H](NC(=O)c3c(Cl)cccc3Cl)C(=O)O)c3ncccc23)c(=O)n(C)c2ccc(C3CC3)cc12` [Example 71, (S)-3-(6-cyclopropyl-1,4-dimethyl-2-oxo-1,2-dihydro-[3,5′-biquinolin]-8′-yl)-2-(2,6-dichlorobenzamido)propanoic acid], 0.0154 µM. Under `COc1cnn(C)c(=O)c1-c1ccc(C[C@H](NC(=O)c2c(Cl)cccc2Cl)C(=O)O)c2ncccc12` [Example 72, (S)-2-(2,6-dichlorobenzamido)-3-(5-(5-methoxy-2-methyl-3-oxo-2,3-dihydropyridazin-4-yl)quinolin-8-yl)propanoic acid] stands 0.0112 µM; under `Cc1c(-c2ccc(C[C@H](NC(=O)c3c(Cl)cccc3Cl)C(=O)O)c3ncccc23)c(=O)n(C)c2cc(Cl)ccc12` [Example 74, (S)-3-(7-chloro-1,4-dimethyl-2-oxo-1,2-dihydro-[3,5′-biquinolin]-8′-yl)-2-(2,6-dichlorobenzamido)propanoic acid], 0.131 µM. Under `CCOCc1cc(OC)c(-c2ccc(C[C@H](NC(=O)c3c(F)cccc3F)C(=O)O)c3ncccc23)c(OC)c1` [Example 78, (S)-2-(2,6-difluorobenzamido)-3-(5-(4-(ethoxymethyl)-2,6-dimethoxyphenyl)quinolin-8-yl)propanoic acid] stands 0.0124 µM.

As for `COc1cc(F)c(F)cc1-c1ccc(C[C@H](NC(=O)c2c(F)cccc2F)C(=O)O)c2ncccc12` [Example 79, (S)-3-(5-(4,5-difluoro-2-methoxyphenyl)quinolin-8-yl)-2-(2,6-difluorobenzamido) propanoic acid], the EC50 came out at 0.0457 µM. As for `Cn1cc(-c2ccc(C[C@H](NC(=O)c3c(F)cccc3F)C(=O)O)c3ncccc23)c(=O)n(C)c1=O` [Example 80, (S)-2-(2,6-difluorobenzamido)-3-(5-(1,3-dimethyl-2,4-dioxo-1,2,3,4-tetrahydropyrimidin-5-yl)quinolin-8-yl)propanoic acid], the figure is 0.017 µM; as for `O=C(N[C@@H](Cc1ccc(-c2cc(F)c(F)cc2OC2CC2)c2cccnc12)C(=O)O)c1c(F)cccc1F` [Example 83, (S)-3-(5-(2-cyclopropoxy-4,5-difluorophenyl)quinolin-8-yl)-2-(2,6-difluorobenzamido)propanoic acid], 0.109 µM.
